Results published in PMC12687449, “Membrane disruption attenuates agonist potency in prostanoid receptors” (Biochemical Journal, 2025).
No end group written: not given here.

Columns and labels:
[1] = biological target: EP4 receptor conformation sensor (Homo sapiens, UniProt P35408); assay: FRET-based EP4 receptor conformation sensor stably expressed in HEK293 cells (intact, saponin-permeabilized, membrane fragments); type: cell-based; conditions: for Schild plot slope value of fitted linear regression / pKB (Schild plot, abscissa intercept): versus PGE2; for response of about 10 times EC50 normalized to saturating PGE2 concentration: 830 nM 11-deoxy PGE2, pipetting protocol
Procedure: (§1) The cells were washed once with external buffer and subsequently incubated 2 minutes for single-cell FRET measurements or 10 minutes for BRET measurements in 0.05% saponin (AppliChem, Darmstadt, Germany) dissolved in internal buffer. Afterward, the cells were washed five times for single-cell FRET measurements or three times for BRET measurements with internal buffer.
HEK293 cells stably expressing the EP4 receptor, IP receptor, or DP2 receptor conformation sensor were seeded on 15 cm Ø dishes and grown until optical confluence. The cells were washed once with Dulbecco’s PBS (Capricorn Scientific GmbH), without Ca & Mg and Phenol Red (phosphate-buffered saline, PBS). After adding 5 ml PBS to the cells, the dish was treated with liquid nitrogen until the solution was visibly frozen. These dishes were stored at −80°C until the measurements were carried out. On the day of the measurement, the dishes were removed from the freezer and stored at room temperature until the buffer solution had thawed. The material was collected with a cell scraper and centrifuged (5000 rpm/5 min). The supernatant was discarded, the pellet containing the membrane fragments was resuspended with external buffer containing 0.1% BSA and seeded on microplates. […]

[2] = biological target: T1, α2A-AR conformation sensor CAM (Mus musculus, UniProt Q01338); assay: FRET-based α2A-AR CAM conformation sensor, single-cell measurements in HEK293 cells; parameters: species or system murine
T1 sequence (Q01338 1-465): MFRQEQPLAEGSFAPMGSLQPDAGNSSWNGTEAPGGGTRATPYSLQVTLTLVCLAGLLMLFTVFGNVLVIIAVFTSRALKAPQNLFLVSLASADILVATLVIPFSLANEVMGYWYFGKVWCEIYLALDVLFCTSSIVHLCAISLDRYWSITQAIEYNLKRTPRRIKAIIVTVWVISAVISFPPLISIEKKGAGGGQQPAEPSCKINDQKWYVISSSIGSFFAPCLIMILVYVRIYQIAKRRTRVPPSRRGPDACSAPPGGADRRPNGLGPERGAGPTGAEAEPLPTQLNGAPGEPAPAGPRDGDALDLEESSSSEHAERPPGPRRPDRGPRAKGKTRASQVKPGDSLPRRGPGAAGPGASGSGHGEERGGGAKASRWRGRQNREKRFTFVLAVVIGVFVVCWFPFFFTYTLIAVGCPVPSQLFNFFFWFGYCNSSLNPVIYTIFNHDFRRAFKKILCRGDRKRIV
Procedure: as §1
(§2) The coverslips loaded with stably transfected HEK293 cells containing either the FFA3 receptor, α2A-AR CAM, or ETB receptor conformation sensors were clamped in an Attofluor^TM cell chamber and were washed once with external buffer. Afterward, they were side by side either permeabilized or directly measured at room temperature by the use of an inverted microscope (Elipse Ti2, Nikon, Düsseldorf, Germany), equipped with a 100× oil immersion objective (Plan Apo λ 100 x/1.45 oil ∞/0.17 WD 0.13, Nikon, Düsseldorf, Germany) and dual excitation and dual emission imaging capabilities. […] The fluorescence emission of mT2 and the respective YFP variant was simultaneously collected by a second beamsplitter (488, Chroma, Bellows Falls, Vermont, U.S.A.) and two emission filters (mT2: 474/27, Chroma; YFP: 544/23, Chroma). […] For all single-cell FRET experiments, cells were prospectively selected based on a continuous plasma-membrane fluorescence rim and appropriate fluorescence distribution to ensure a PM-dominant receptor signal. […]

[3] = biological target: T2, FFA3 receptor conformation sensor (Homo sapiens, UniProt O14843); assay: FRET-based FFA3 receptor conformation sensor, single-cell measurements in HEK293 cells
T2 construct: mT2 insertion and truncation after G314; expressed in transfected cells
T2 sequence (O14843 1-314 limits assumed): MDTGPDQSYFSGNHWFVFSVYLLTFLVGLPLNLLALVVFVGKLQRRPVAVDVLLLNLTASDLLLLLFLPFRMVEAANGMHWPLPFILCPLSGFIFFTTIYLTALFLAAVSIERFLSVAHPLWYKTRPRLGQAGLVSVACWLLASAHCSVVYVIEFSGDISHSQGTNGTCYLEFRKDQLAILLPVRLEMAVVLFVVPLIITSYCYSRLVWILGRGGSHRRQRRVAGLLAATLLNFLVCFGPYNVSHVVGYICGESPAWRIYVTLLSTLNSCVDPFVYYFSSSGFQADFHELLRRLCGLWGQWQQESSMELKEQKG
Procedure: as §1, §2

[4] = biological target: T3, ETB receptor (Homo sapiens, UniProt P24530); assay: BRET-based G protein activation, wildtype ETB receptor + Gαq biosensor in HEK293T cells; type: cell-based
T3 construct: expressed in transfected cells; host or cells: HEK293T (transient)
T3 sequence (P24530 27-442): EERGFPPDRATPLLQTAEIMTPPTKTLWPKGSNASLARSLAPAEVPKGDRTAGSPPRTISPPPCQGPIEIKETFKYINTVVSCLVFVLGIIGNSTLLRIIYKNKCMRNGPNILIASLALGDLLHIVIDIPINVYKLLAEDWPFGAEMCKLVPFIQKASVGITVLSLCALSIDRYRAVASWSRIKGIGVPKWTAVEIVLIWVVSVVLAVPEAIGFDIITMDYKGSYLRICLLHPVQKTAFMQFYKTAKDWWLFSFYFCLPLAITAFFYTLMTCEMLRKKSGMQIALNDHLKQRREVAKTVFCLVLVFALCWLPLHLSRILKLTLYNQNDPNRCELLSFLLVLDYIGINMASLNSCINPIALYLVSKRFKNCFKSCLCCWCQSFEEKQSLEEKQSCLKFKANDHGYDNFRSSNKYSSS
Procedure: Two days before BRET measurements were performed, HEK293T cells were transiently transfected with 3 µg of cDNAs containing TP receptor, ETB receptor, DP2 receptor, or S1P3 receptor and 3 µg of cDNAs containing Gβ3-T2A-cpVenus-Gγ9-IRES-Gαq-NLuc or Gβ3-T2A-cpVenus-Gγ9-IRES-Gαo1-NLuc using linear 25 kDa PEI reagent (polyethylenimine, PolyScience Inc., Hirschberg an der Bergstraße, Germany). The ratio between DNA and PEI was 1:3, and 50 µl serum-free DMEM was added per 1 µg DNA. The same amount of serum-free DMEM was also added separately to the PEI solution. DNA-DMEM and PEI-DMEM mixtures were incubated for 5 minutes, followed by incubation of the final mixture for another 10 minutes. […]
Two days before the actual measurement, HEK293T cells were transiently transfected and seeded on microplates. […] The measurements were performed using a Spark 20M plate reader (Tecan) at 37°C. Initially, the cells were measured for the baseline emission ratio. After the baseline measurement, 20 µl of external or internal buffer containing differing concentrations of either U-46619, 4-Ala ET-1, PGD,2 or S1P or external or internal buffer alone were added to the cells and measured. […] The cells were measured from the top and the donor luminescence (NLuc) was recorded at 415 to 470 nm and the acceptor luminescence (cpVenus) at 520 to 590 nm. Data were recorded using SparkControl^TM software. […]

Sequence of EP4 receptor conformation sensor (P35408 1-332 limits assumed): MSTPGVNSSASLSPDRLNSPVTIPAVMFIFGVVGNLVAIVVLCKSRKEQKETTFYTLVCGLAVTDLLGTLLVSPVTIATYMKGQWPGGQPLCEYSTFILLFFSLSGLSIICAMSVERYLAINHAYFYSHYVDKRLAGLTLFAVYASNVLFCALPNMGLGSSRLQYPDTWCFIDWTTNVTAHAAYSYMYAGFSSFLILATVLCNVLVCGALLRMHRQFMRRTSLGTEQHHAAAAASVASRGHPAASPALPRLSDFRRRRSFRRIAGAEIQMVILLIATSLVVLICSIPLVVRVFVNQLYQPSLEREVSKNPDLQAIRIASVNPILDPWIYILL

**Q.** With CCCCc1nn(-c2ccccc2C(F)(F)F)c(=O)n1Cc1ccc(-c2ccccc2S(=O)(=O)NC(=O)c2sccc2C)cc1 [L-161,982] as the molecule, how does the “Schild plot slope value of fitted linear regression” value ([1]; intact cells) read?
**A.** 1.16

**Q.** And the “pKB (Schild plot, abscissa intercept)” value ([1]; intact cells)?
**A.** 7.7

**Q.** What about the “Schild plot slope value of fitted linear regression” value ([1]; membrane fragments) of the same molecule?
**A.** 0.69

**Q.** What about the “pKB (Schild plot, abscissa intercept)” value ([1]; membrane fragments) of the same molecule?
**A.** 6.6

**Q.** Which pEC50 ([2]; intact cells) does the source give for NC[C@H](O)c1ccc(O)c(O)c1 [norepinephrine] here?
**A.** 6.10

**Q.** What about the pEC50 ([2]; saponin-permeabilized cells) of the same molecule?
**A.** 5.63

**Q.** For CCC(=O)O [propionate, propionic acid], which pEC50 ([3]; intact cells) is on record?
**A.** 3.92

**Q.** And the pEC50 ([3]; saponin-permeabilized cells)?
**A.** 3.84

**Q.** Which EC50 ([4]; intact HEK293T cells) does the source give for ASASSLMDKEAVYFAHLDIIW-OH [4-Ala ET-1] here?
**A.** 8.91 nM

**Q.** And the EC50 ([4]; saponin-permeabilized cells with 1 µM GTP)?
**A.** 0.617 nM

**Q.** How did the pEC50 ([1]; intact HEK293 cells, multiple-cell FRET on plate reader) turn out when CCCCC[C@H](O)/C=C/[C@H]1CCC(=O)[C@@H]1C/C=C\CCCC(=O)O [11-deoxy PGE2] was run?
**A.** 7.08

**Q.** What about the “response of about 10 times EC50 normalized to saturating PGE2 concentration” value ([1]; intact cells) of the same molecule?
**A.** 91% ± 3

**Q.** What about the “response of about 10 times EC50 normalized to saturating PGE2 concentration” value ([1]; saponin-permeabilized cells) of the same molecule?
**A.** 50% ± 3
